The values below come from PubChem BioAssay (NCI).

Broadly, the TGI is the concentration giving total growth inhibition. The low end stands for greater sensitivity of the cells, the high end for lower sensitivity of the cells.

Common to all, as to experiment: DTP human tumour cell line panel, 48 h
Assay [1] deals with 786-0 renal.
Assay [2] has as its system A498 renal.
Assay [3] deals with HT29 colon.
Assay [4] deals with SF-268 CNS.
In assay [5] the test system is SF-539 CNS.
Assay [6] deals with SK-MEL-5 melanoma.
The subject of assay [7] is TK-10 renal.
Assay [8] has as its system U251 CNS.
Assay [9] deals with M14 melanoma.

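The compound was tested at five concentrations on cells cultured in 96-well plates, with a 48-hour exposure period. The concentration for full growth arrest is given as TGI.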 Bounds are passed on as bounds.

In the case of `CC(=O)NNc1nc(C)c(C(=O)/C=C/c2ccc(Cl)cc2)s1`, the total growth inhibition concentration (TGI) in assay [1], in [2], in assay [3], in assay [4], in [5] and in assay [6] was more than 100 µM each time. In addition, the TGI in [7] and in assay [8] was more than 100 µM each time.

On to `C#CC1(O)CCC2[C@@H]3CCc4cc(Oc5nc(F)nc(-c6c7ccccc7c(SCC)n6CCC)n5)ccc4C3CC[C@@]21C` (stereo partly drawn), for which the total growth inhibition concentration (TGI) in assay [1], in [2], in assay [3], in assay [9], in [4] and in [5] was more than 100 µM in each case. Moreover, the TGI in assay [6], in assay [7] and in assay [8] was more than 100 µM each time.

Regarding `COc1cc2c(cc1OC)C1Cc3ccc(OC)c(OC)c3C[N+]1([O-])CC2` (stereo not drawn), the TGI in assay [1], in [2], in assay [3], in assay [9], in assay [4] and in assay [5] was more than 100 µM in each case. Further, the total growth inhibition concentration (TGI) in [6], in [7] and in assay [8] was more than 100 µM throughout.

For the compound `O=S(=O)(N=NC=C1c2ccccc2N(O)c2ccccc21)c1ccc(Cl)cc1`, the TGI in assay [1], in [2], in assay [3], in [9], in assay [4] and in assay [6] was more than 100 µM each time. Moreover, the TGI in assay [7] and in assay [8] was more than 100 µM throughout.

Take `COC(=O)[C@@H](C)[C@H]1CC[C@@](C)(CCC2=C(C)CC3C=C(C)CCC3C2(C)C)OO1` (stereo partly drawn): the concentration for total growth inhibition (TGI) was 0.263 µM in [1]; 3.19 µM in assay [2]; 2.96 µM in [3]; 3.13 µM in assay [9]; 3.76 µM in assay [4]; 3.27 µM in assay [5]. Also, the results for the concentration for total growth inhibition (TGI) in assay [6], in [7] and in assay [8] were 2.87 µM, 3.31 µM and 2.73 µM, respectively.

For the compound `Cc1nc(/C=C2\C(=O)C=Cc3ccccc32)c(O)o1`, the concentration for total growth inhibition (TGI) in [1], in assay [2], in [3], in [9], in [4] and in [5] was more than 100 µM each time. Moreover, the concentration for total growth inhibition (TGI) in assay [6] and in assay [8] was more than 100 µM in each case.

For the compound `CCOC(=O)C1=C(C)N(NC(N)=O)C2(N)N(NC(N)=O)C(C)=C(C(=O)OCC)C12C(=O)OCC` (stereo not drawn), the TGI in assay [1], in assay [2], in assay [3], in assay [9], in assay [4] and in [5] was more than 100 µM throughout. For the same compound, the total growth inhibition concentration (TGI) in assay [6] and in assay [8] was more than 100 µM in each case.

Take `C=CCN1/C(=C2\SC(=S)N(c3ccc(C)cc3)C2=O)Sc2c1ncn(C)c2=O`: the concentration for total growth inhibition (TGI) in assay [1], in assay [2], in [3], in assay [9], in assay [4] and in assay [5] was more than 100 µM throughout. The TGI in assay [6], in assay [7] and in assay [8] was more than 100 µM in each case.

For `COC1CCC(OC)C(C2(C3CC(OC)CCC3OC)OC(=O)c3ccccc32)C1` (stereo not drawn), the concentration for total growth inhibition (TGI) in assay [1], in assay [2], in assay [3], in assay [9], in [4] and in assay [5] was more than 100 µM throughout. Besides, the total growth inhibition concentration (TGI) in assay [6], in [7] and in assay [8] was more than 100 µM in each case.

As for `COc1ccc2c(c1)NC1(O)c3ccccc3C(=O)C21O` (stereo not drawn), the TGI in assay [1], in assay [2], in [3], in [9], in [4] and in [5] was more than 100 µM throughout. Moreover, the total growth inhibition concentration (TGI) in assay [6], in [7] and in assay [8] was more than 100 µM in each case.

In the case of `CC(C(=O)c1ccccc1)C1(O)C(=O)Nc2ccc(Cl)cc21` (stereo not drawn), the TGI in assay [1], in assay [2], in [3], in assay [9], in [4] and in [5] was more than 100 µM throughout. The TGI in assay [7] and in assay [8] was more than 100 µM each time.

As to `Cc1c(Cl)cccc1NC(=O)/C=C/c1ccccc1`, the concentration for total growth inhibition (TGI) in [1], in [2], in [3], in assay [9], in assay [4] and in [5] was more than 100 µM throughout. The TGI in assay [6], in [7] and in assay [8] was more than 100 µM each time.

For `Cc1ccc(S(=O)(=O)OC(COC(=O)c2ccccc2)C(OS(=O)(=O)c2ccc(C)cc2)C(OS(=O)(=O)c2ccc(C)cc2)C(COC(=O)c2ccccc2)OS(=O)(=O)c2ccc(C)cc2)cc1` (stereo not drawn), the TGI in assay [1], in assay [2], in assay [3], in [9], in assay [4] and in [5] was more than 100 µM throughout. The TGI in assay [6], in assay [7] and in [8] was more than 100 µM each time.

In the case of `C/C(CC(=O)Nc1ccccc1C)=N/NS(=O)(=O)c1ccc(C)cc1`, the TGI in [1], in assay [2], in assay [3], in assay [9], in [4] and in assay [5] was more than 100 µM in each case. The TGI in assay [6], in assay [7] and in assay [8] was more than 100 µM throughout.

For `COC(=O)/C(C#N)=C(\N)C(Cl)(Cl)Cl`, the total growth inhibition concentration (TGI) in assay [1] was 14.4 µM; in [2], 8.22 µM; in assay [9] it was 3.31 µM; in assay [4] it was 14.7 µM; in [6] it was 3.82 µM; in [7], 7.55 µM. Besides, the TGI in [8] was 31.7 µM.

Regarding `CCCCc1c2cnccc2c(CCCC)c2c1[nH]c1ccccc12`, the TGI in assay [1] came out at 24.1 µM; in assay [2], 35.2 µM; in assay [3], 29 µM; in assay [9] it was 41.1 µM; in [4], 47.1 µM; in assay [5], 12.6 µM. The concentration for total growth inhibition (TGI) in assay [7] turned out to be 34.6 µM; in assay [8], 27 µM.

As for `OC12c3ccccc3C1CCCCCCCCCC21OCCO1` (stereo not drawn), the TGI in assay [1], in assay [2], in assay [3], in assay [9], in assay [4] and in assay [5] was more than 100 µM in each case. Moreover, the TGI in assay [6], in [7] and in assay [8] was more than 100 µM throughout.

Turning to `C=CCC1(C(=O)OC(C)(C)C)C(OC)=C(C(=O)OC(C)(C)C)C2C1C(C(=O)OC(C)(C)C)=C(OC)C2(CC=C)C(=O)OC(C)(C)C` (stereo not drawn), the total growth inhibition concentration (TGI) in assay [1], in [9], in assay [4], in assay [5] and in assay [7] was more than 100 µM each time.

As to `COc1ccc(C(=O)CC2=Nc3nnc(CCCCCCCc4nnc5n4C(=O)C(CC(=O)c4ccc(OC)cc4)=N5)n3C2=O)cc1`, the total growth inhibition concentration (TGI) in assay [1], in assay [2], in [3], in [9], in assay [4] and in assay [5] was more than 100 µM in each case. For the same compound, the concentration for total growth inhibition (TGI) in [6], in assay [7] and in assay [8] was more than 100 µM each time.

On to `COc1cc(NS(C)(=O)=O)ccc1NCc1c2ccccc2nc2ccccc12`, for which the TGI was more than 100 µM in assay [1]; more than 100 µM in [3]; more than 100 µM in assay [9]; more than 100 µM in assay [4]; 65.2 µM in assay [5]; more than 100 µM in assay [7]. The TGI in assay [8] is more than 100 µM.

In the case of `COC(=O)C1CC(OC(C)=O)C=C2C(=O)CCC21` (stereo not drawn), the total growth inhibition concentration (TGI) in assay [1] is 51 µM; in [2], more than 100 µM; in assay [9], 50.2 µM; in assay [4], 38.8 µM; in assay [5], 50.6 µM; in assay [6], 67.9 µM. Also, the TGI amounted to 77.5 µM in assay [7] and 80.9 µM in assay [8].

Take `COC(=O)C(CC(=O)Nc1ccc(Cl)c(Cl)c1)C(=O)C(=O)Nc1ccc(Cl)c(Cl)c1` (stereo not drawn): the TGI in assay [1], in assay [2], in assay [3], in assay [9], in assay [4] and in assay [5] was more than 100 µM each time. The concentration for total growth inhibition (TGI) in assay [6], in assay [7] and in [8] was more than 100 µM each time.

For the compound `COc1ccc2oc(-c3ccc(OC)c(OC)c3OC)cc(=O)c2c1`, the TGI in assay [1], in assay [3], in assay [9], in assay [4], in assay [5] and in [7] was more than 100 µM in each case.

For the compound `Cc1cccc(C)c1N1C(=O)C(=O)C(c2nc3ccccc3s2)/C(=N/NC(=O)c2ccccc2O)C1=O` (stereo not drawn), the TGI was more than 66 µM in assay [1]; more than 100 µM in assay [2]; more than 100 µM in assay [3]; more than 100 µM in assay [9]; more than 68.8 µM in assay [4]; 59.5 µM in [5]. Also, the concentration for total growth inhibition (TGI) in assay [6] is more than 53.7 µM; in [7], more than 100 µM; in assay [8], more than 100 µM.

As for `N#CC(C#N)=Cc1ccc(CP(=O)(O)O)cc1`, the TGI in assay [1], in assay [2], in assay [3], in assay [9], in [4] and in [5] was more than 100 µM each time. In addition, the TGI in assay [6], in assay [7] and in assay [8] was more than 100 µM throughout.

Turning to `COc1cc(C(C)c2cc3c(cc2OCCNC(=O)COc2cc4c(cc2C(C)c2cc(OC)c(OC)c(OC)c2)OCO4)OCO3)cc(OC)c1OC` (stereo not drawn), the total growth inhibition concentration (TGI) in assay [1], in assay [2], in [3], in assay [9], in assay [4] and in [5] was more than 100 µM throughout. Further, the total growth inhibition concentration (TGI) in assay [6], in assay [7] and in assay [8] was more than 100 µM throughout.

Consider `O=C(Nc1ccccc1-c1nn(CN2CCNCC2)c(=S)n(CN2CCNCC2)c1=O)C(F)(F)F`, for which the total growth inhibition concentration (TGI) in assay [1] was determined as 35.1 µM; in assay [2], 35.3 µM; in assay [3] it was 57.5 µM; in [9], 31.1 µM; in assay [4] it was 41.8 µM; in [5], 35.3 µM. For the same compound, the values for the TGI in assay [6], in assay [7] and in assay [8] were 31 µM, 61.1 µM and 31.7 µM, respectively.

`Cc1ccc2nc3cc(C)c(=O)cc-3sc2c1`: the TGI in assay [1], in assay [3], in assay [9], in [4], in assay [5] and in assay [6] was more than 100 µM each time. Besides, the TGI in assay [7] and in [8] was more than 100 µM each time.

As for `Cc1nc(N)nc(N)c1CCCc1ccccc1`, the concentration for total growth inhibition (TGI) is more than 100 µM in assay [1]; more than 100 µM in assay [3]; 64.2 µM in assay [9]; more than 100 µM in assay [4]; more than 100 µM in [5]; more than 100 µM in [6]. Besides, the TGI in [7] and in [8] was more than 100 µM each time.

Turning to `O=C1CNC(=O)c2[nH]cnc2N1`, the concentration for total growth inhibition (TGI) in [1], in assay [2], in assay [3], in assay [9], in [4] and in assay [5] was more than 100 µM each time. Moreover, the TGI in assay [6], in [7] and in assay [8] was more than 100 µM in each case.

Turning to `N/N=C(\c1nc2ccc(Cl)cc2[nH]c1=O)C(O)c1ccc(Cl)c(Cl)c1` (stereo not drawn), the TGI in assay [1], in [3], in assay [9], in assay [4], in assay [5] and in assay [6] was more than 100 µM throughout. The TGI in assay [7] and in assay [8] was more than 100 µM in each case.
